The subject of assay [1] is Anti-T₃ Stimulated Lymphocytes (Human peripheral blood mononuclear leukocytes MNL). In words: Inhibition of ³H-thymidine incorporation in anti-T₃ stimulated lymphocytes. Format: cell-based. The conditions noted are these: 72 hour incubation. How it is done: Inhibition of ³H-Thymidine Incorporation in Anti-T₃ Stimulated Lymphocytes by Various Peptides
Human peripheral blood mononuclear leukocytes MNL were isolated by Ficoll-Hypaque density sedimentation. MNL ([…]) were cultured with anti-T₃ (1:10,000 dilution; Ortho Diagnostics) in 0.1 ml DMEM, supplemented with 2% FCS, in 96-well microtiter plates. Following a 72 hour incubation (37°C), including a pulse with 1 µCi of [³H]TdR in the final 18 hours of culture, the cells were harvested and counted as described in Example 6.
In general terms: Uptake of a labelled nucleoside into DNA is a usual measure of proliferation.

Assay [2] has as its system Mixed Lymphocyte Cultures (C57BL/6 and DBA/2 leukocytes). In words: Inhibition of ³H-thymidine incorporation in mixed lymphocyte cultures. The class given is cell-based. The conditions noted are these: 120 hour incubation. How it is done: Inhibition of ³H-Thymidine Incorporation in Mixed Lymphocyte Cultures by Various Peptides
Spleens were aseptically removed and teased apart in RPMI 1640 culture media to obtain single cell suspensions. Erythrocytes were lysed by suspending cells in ACK buffer (0.155 M NH₄Cl, 0.1 mM EDTA, 0.01 M KHCO₃) and the remaining leukocytes washed. C57BL/6 (5 x 10⁵cells) and DBA/2 (5 x 10⁵cells) leukocytes were co-cultured in 0.1 ml RPMI-1640, supplemented with 2% fetal calf serum (FCS), in 96-well microtiter plates. Various concentrations of peptides were added at the initiation of cell culture. Following a 120 hour incubation (37°C), including a pulse with 1 µCi of [³H]TdR in the final 18 hours of culture, the cells were harvested with an automated cell harvester unit onto filter paper strips and placed in ACS scintillation fluid (Amersham, Oakville, Ontario). The amount of [³H]TdR incorporation was then measured in a Beckman LS 7800 liquid scintillation counter.

As a reminder, the % Inhibition is the drop in the measured response relative to a control, in per cent. Read a low % Inhibition as a response near the control. Consider “H-Glu-Val-Val-Leu-Gln-Asn-Arg-Arg-Gly-Leu-Leu-OH (H-EVVLQNRRGLL-OH) [Example 4, peptide]”, for which the “% Inhibition” value in assay [1] (4 µM BSA-conjugated peptide) worked out at 5%; in assay [1] (8 µM BSA-conjugated peptide), 11%; in assay [2] (4 µM BSA-conjugated peptide), 28%; in assay [2] (8 µM BSA-conjugated peptide), 54%. The “³H-Thymidine Incorporation (cpm)” value in assay [1] (4 µM BSA-conjugated peptide) came to 54331 ± 4717 cpm; in assay [1] (8 µM BSA-conjugated peptide), 39248 ± 5251 cpm; in assay [2] (4 µM BSA-conjugated peptide) it was 5751 ± 407 cpm; in assay [2] (8 µM BSA-conjugated peptide), 3063 ± 372 cpm.
In the case of “H-LQNRRGLDLLFLKEGGL-NH2 [Example 3, peptide]”, the “% Inhibition” value in assay [1] (12 µM BSA-conjugated peptide) came to 45%; in assay [1] (24 µM BSA-conjugated peptide), 68%; in assay [2] (12 µM BSA-conjugated peptide), 57%; in assay [2] (24 µM BSA-conjugated peptide), 80%. Besides, the “³H-Thymidine Incorporation (cpm)” value in assay [1] (12 µM BSA-conjugated peptide) is recorded as 31667.±.4729 cpm; in assay [1] (24 µM BSA-conjugated peptide), 14027 ± 867 cpm; in assay [2] (12 µM BSA-conjugated peptide), 3417 ± 263 cpm; in assay [2] (24 µM BSA-conjugated peptide), 1328 ± 421 cpm.
Take “H-LRKLRKRLLRDADDL-NH2 [Example 1, peptide]”: the “% Inhibition” value in assay [1] (9 µM BSA-conjugated peptide) was 33%; in assay [1] (18 µM BSA-conjugated peptide), 50%; in assay [2] (9 µM BSA-conjugated peptide), 59%; in assay [2] (18 µM BSA-conjugated peptide), 73%. Besides, the “³H-Thymidine Incorporation (cpm)” value in assay [1] (9 µM BSA-conjugated peptide) turned out to be 38521 ± 5349 cpm; in assay [1] (18 µM BSA-conjugated peptide) it was 21984 ± 3824 cpm; in assay [2] (9 µM BSA-conjugated peptide) it was 3267 ± 457 cpm; in assay [2] (18 µM BSA-conjugated peptide), 1800 ± 412 cpm.
As to “H-TRLTRKRGLKLATAL-NH2 [Example 2, peptide]”, the “% Inhibition” value in assay [1] (14 µM BSA-conjugated peptide) is on record as 23%; in assay [1] (28 µM BSA-conjugated peptide) it was 54%; in assay [2] (14 µM BSA-conjugated peptide), 45%; in assay [2] (28 µM BSA-conjugated peptide), 67%. Also, the “³H-Thymidine Incorporation (cpm)” value worked out at 44151 ± 2151 cpm in assay [1] (14 µM BSA-conjugated peptide), 20041 ± 3331 cpm in assay [1] (28 µM BSA-conjugated peptide), 4406 ± 848 cpm in assay [2] (14 µM BSA-conjugated peptide) and 2209 ± 1471 cpm in assay [2] (28 µM BSA-conjugated peptide).
